# Experiment: Antagonist activity at CCR2 receptor in human monocytes assessed as inhibition of MCP1-mediated chemotaxis
row,SMILES,IC50
1,"CC(C)(O)[C@]1(C(=O)NCc2cc(C(F)(F)F)cc(C(F)(F)F)c2)CC[C@@H](N2CCC(c3cncnc3)CC2)C1 [(1S,3R)-N-(3,5-bis(trifluoromethyl)benzyl)-1-(2-hydroxypropan-2-yl)-3-(4-(pyrimidin-5-yl)piperidin-1-yl)cyclopentanecarboxamide]",2 nM
2,"CC(C)[C@]1(C(=O)NCc2cc(C(F)(F)F)cc(C(F)(F)F)c2)CC[C@@H](N2CCC(c3cncnc3)CC2)C1 [N-(3,5-bis(trifluoromethyl)benzyl)-1-isopropyl-3-(4-(pyrimidin-5-yl)piperidin-1-yl)cyclopentanecarboxamide]",2 nM
